What all share (type): in vivo
Series [1] relates to Heliothis virescens. Kind of series: Tobacco budworm (Heliothis virescens) control, microtiter plate insect diet test. The settings on record: 120 h, egg and larval mortality after 5 days, read-out: mortality in comparison with untreated controls. The procedure: For evaluating control of tobacco budworm (Heliothis virescens) the test unit consisted of 96-well-microtiter plates containing an insect diet and 15-25 H. virescens eggs.
The compounds were formulated using a solution containing 75% v/v water and 25% v/v DMSO. Different concentrations of formulated compounds were sprayed onto the insect diet at 10 μl, using a custom built micro atomizer, at two replications.
After application, microtiter plates were incubated at about 28±1° C. and about 80±5% relative humidity for 5 days. Egg and larval mortality was then visually assessed.

In series [2] the test system is Myzuspersicae. Kind of series: Green peach aphid (Myzuspersicae) control through systemic means, artificial diet under membrane. The settings on record: Myzus persicae, 72 h, adult aphids on treated diet, 3 days, read-out: mortality in comparison with untreated controls. From the text: For evaluating control of green peach aphid (Myzuspersicae) through systemic means the test unit consisted of 96-well-microtiter plates containing liquid artificial diet under an artificial membrane.
The compounds were formulated using a solution containing 75% v/v water and 25% v/v DMSO. Different concentrations of formulated compounds were pipetted into the aphid diet, using a custom built pipetter, at two replications.
After application, 5-8 adult aphids were placed on the artificial membrane inside the microtiter plate wells. The aphids were then allowed to suck on the treated aphid diet and incubated at about 23±1° C. and about 50±5% relative humidity for 3 days. Aphid mortality and fecundity was then visually assessed.

In series [3] the test system is Bemisia argentifolii. In words: Silverleaf whitefly (Bemisia argentifolii), sprayed cotton plants. The settings on record: 72 h, adults, 3 days after treatment, read-out: mortality in comparison with untreated controls. On the procedure: The active compounds were formulated by a Tecan liquid handler in 100% cyclohexanone as a 10,000 ppm solution supplied in tubes. The 10,000 ppm solution was serially diluted in 100% cyclohexanone to make interim solutions. These served as stock solutions for which final dilutions were made by the Tecan in 50% acetone:50% water (v/v) into 5 or 10 ml glass vials. A nonionic surfactant (Kinetic®) was included in the solution at a volume of 0.01% (v/v). The vials were then inserted into an automated electrostatic sprayer equipped with an atomizing nozzle for application to plants/insects.
Cotton plants at the cotyledon stage (one plant per pot) were sprayed by an automated electrostatic plant sprayer equipped with an atomizing spray nozzle. The plants were dried in the sprayer fume hood and then removed from the sprayer. Each pot was pla-ced into a plastic cup and about 10 to 12 whitefly adults (approximately 3-5 days old) were introduced. The insects were collected using an aspirator and a nontoxic Tygon® tubing connected to a barrier pipette tip. The tip, containing the collected insects, was then gently inserted into the soil containing the treated plant, allowing insects to crawl out of the tip to reach the foliage for feeding. Cups were covered with a reusable screened lid. […] Mortality was assessed 3 days after treatment, compared to untreated control plants.

Series [4] relates to Anthonomus grandis. In words: Boll weevil (Anthonomus grandis) control, microtiter plate insect diet test. The conditions noted are these: 120 h, egg and larval mortality after 5 days, read-out: mortality in comparison with untreated controls. On the procedure:
For evaluating control of boll weevil (Anthonomus grandis) the test unit consisted of 96-well-microtiter plates containing an insect diet and 5-10 A. grandis eggs.
The compounds were formulated using a solution containing 75% v/v water and 25% v/v DMSO. Different concentrations of formulated compounds were sprayed onto the insect diet at 5 μl, using a custom built micro atomizer, at two replications.
After application, microtiter plates were incubated at about 25±1° C. and about 75±5% relative humidity for 5 days. Egg and larval mortality was then visually assessed.

In series [5] the test system is Plutella xylostella. Kind of series: Diamond back moth (Plutella xylostella), cabbage leaf dip test. The conditions noted are these: foliar, 3rd instar larvae, 72 hours after treatment, read-out: mortality in comparison with untreated controls. The procedure: (§1) The active compound is dissolved at the desired concentration in a mixture of 1:1 (vol:vol) distilled water: acetone. Surfactant (Kinetic® HV) is added at a rate of 0.01% (vol/vol). The test solution is prepared at the day of use.
Leaves of cabbage were dipped in test solution and air-dried. Treated leaves were placed in petri dishes lined with moist filter paper and inoculated with ten 3rd instar larvae. Mortality was recorded 72 hours after treatment. Feeding damages were also recorded using a scale of 0-100%.

The test system of series [6] is Spodoptera Eridania. Kind of series: Southern armyworm (Spodoptera Eridania), sprayed lima bean plants. The conditions noted are these: 96 h, larvae, 4 days after treatment, read-out: mortality in comparison with untreated controls. On the procedure:
The active compounds were formulated by a Tecan liquid handler in 100% cyclohexanone as a 10,000 ppm solution supplied in tubes. The 10,000 ppm solution was serially diluted in 100% cyclohexanone to make interim solutions. These served as stock solutions for which final dilutions were made by the Tecan in 50% acetone:50% water (v/v) into 10 or 20 ml glass vials. A nonionic surfactant (Kinetic®) was included in the solution at a volume of 0.01% (v/v). The vials were then inserted into an automated electrostatic sprayer equipped with an atomizing nozzle for application to plants/insects.
Lima bean plants (variety Sieva) were grown 2 plants to a pot and selected for treatment at the 1st true leaf stage. Test solutions were sprayed onto the foliage by an automated electrostatic plant sprayer equipped with an atomizing spray nozzle. The plants were dried in the sprayer fume hood and then removed from the sprayer. Each pot was placed into perforated plastic bags with a zip closure. About 10 to 11 armyworm larvae were placed into the bag and the bags zipped closed. Test plants were maintained in a growth room at about 250C and about 20-40% relative humidity for 4 days, avoiding direct exposure to fluorescent light (24 hour photoperiod) to prevent trapping of heat inside the bags. Mortality and reduced feeding were assessed 4 days after treatment, compared to untreated control plants.

Series [7] concerns Nezara viridula. In words: Green soldier stink bug (Nezara viridula), sprayed soybean pods in Petri dishes. The conditions noted are these: 120 h, late 3rd instar, after 5 days, read-out: mortality in comparison with untreated controls. The procedure: The active compound is dissolved at the desired concentration in a mixture of 1:1 (vol:vol) distilled water: aceteone. Surfactant (Kinetic® HV) is added at a rate of 0.01% (vol/vol). The test solution is prepared at the day of use.
Soybean pods were placed in 90×50 mm glass Petri dishes lined with moist filter paper and inoculated with ten late 3rd instar N. viridula. Using a hand atomizer, an approximately 2 ml solution is sprayed into each Petri dish. Treated cups were kept at about 25-26° C. and relative humidity of about 65-70%. Percent mortality was recorded after 5 days.

Series [8] relates to Megoura viciae. Kind of series: Vetch aphid (Megoura viciae) control, broad bean leaf disk test. The settings on record: foliar, 120 h, adult aphids on treated leaf disks, 5 days, read-out: mortality in comparison with untreated controls. On the procedure: For evaluating control of vetch aphid (Megoura viciae) through contact or systemic means the test unit consisted of 24-well-microtiter plates containing broad bean leaf disks.
The compounds were formulated using a solution containing 75% v/v water and 25% v/v DMSO. Different concentrations of formulated compounds were sprayed onto the leaf disks at 2.5 μl, using a custom built micro atomizer, at two replications.
After application, the leaf disks were air-dried and 5-8 adult aphids placed on the leaf disks inside the microtiter plate wells. The aphids were then allowed to suck on the treated leaf disks and incubated at about 23±1° C. and about 50±5% relative humidity for 5 days. Aphid mortality and fecundity was then visually assessed.

The test system of series [9] is Nilaparvata lugens. Kind of series: Rice brown plant hopper (Nilaparvata lugens), sprayed rice seedlings. The settings on record: adults, after 72 hours, read-out: mortality in comparison with untreated controls. The procedure:
Four to five-week old rice seedlings were cleaned and washed 24 hours before spraying. The active compounds were formulated in 1:1 acetone:water (vol:vol) and 0.01% vol/vol surfactant (Kinetic® HV) was added. Potted rice seedlings were sprayed with 5-6 ml test solution, air dried, covered with Mylar cages and inoculated with 10 adults. Treated rice plants were kept at about 28-29° C. and relative humidity of about 50-60%. Percent mortality was recorded after 72 hours.

Series [10] concerns Aphis craccivora. Kind of series: Cowpea aphid (Aphis craccivora), sprayed potted cowpea plants. The settings on record: after 72 hours, read-out: mortality in comparison with untreated controls. On the procedure:
as §1
Potted cowpea plants were colonized with approximately 30-50 aphids of various stages by manually transferring a leaf tissue cut from infested plant 24 hours before application. Plants were sprayed with the test solutions using a DeVilbiss® hand atomizer at 20-30 psi (=1.38 to 2.07 bar) after the pest population has been checked. Treated plants are maintained on light carts at about 25-26° C. Percent mortality was assessed after 72 hours.

Series [11] has as its system Nephotettix virescens. Kind of series: Rice green leafhopper (Nephotettix virescens), sprayed rice seedlings. The conditions noted are these: adults, after 72 hours, read-out: mortality in comparison with untreated controls. On the procedure: Four to five-week old rice seedlings with cut upper leaf portion were cleaned and washed 24 hours before spraying. The active compounds were formulated in 1:1 acetone:water (vol:vol), and 0.01% vol/vol surfactant (Kinetic® HV) was added. Potted rice seedlings were sprayed with 5-6 ml test solution, air dried, covered with Mylar cages and inoculated with 10 adults. Treated rice plants were kept at about 28-29° C. and relative humidity of about 50-60%. Percent mortality was recorded after 72 hours.

Series [12] deals with Chilo suppressalis. In words: Striped stem borer (Chilo suppressalis), sprayed petriplates with rice straw. The settings on record: 300 ppm; first-instar larvae, 72 hours after treatment. The procedure:
as §1
Ten first-instar larvae are allowed to crawl on sprayed petriplates for 1 minute and then provided with one freshly cut rice straw per plate. After 10 minutes when all of the larvae are inside the straw will then be covered with Petri lid. Percent mortality is recorded after 72 hours after treatment.

A value given as a limit tells only on which side of the number the result lay.

The values below come from patent publication US11591335B2, “Bicyclic pesticidal compounds” (BASF SE, priority 2017, dated 2023).

Take `CCS(=O)(=O)c1ccc(-n2cnc(C(F)(F)F)n2)nc1-c1cn2c(=O)n(C)c(C(F)(F)F)cc2n1` [I-1-1, 2-[3-ethylsulfonyl-6-[3-(trifluoromethyl)-1,2,4-triazol-1-yl]-2-pyridyl]-6-methyl-7-(trifluoromethyl)imidazo[1,2-c]pyrimidin-5-one]: the mortality at 2500 ppm in series [1], in series [2] and in series [4] was above 75% each time. The mortality at 300 ppm in series [3], in series [5] and in series [6] was above 75% in each case.
For `CCS(=O)(=O)c1cc(N2CCCC2=O)cnc1-c1cn2c(=O)n(C)c(C(F)(F)F)cc2n1` [I-1-3, 2-[3-ethylsulfonyl-5-(2-oxopyrrolidin-1-yl)-2-pyridyl]-6-methyl-7-(trifluoromethyl)imidazo[1,2-c]pyrimidin-5-one], the mortality at 2500 ppm in [1], in series [2], in [8] and in [4] was above 75% each time. Besides, the mortality at 300 ppm in [7], in series [9], in series [10], in series [11] and in [6] was above 75% throughout.
As to `CCS(=O)(=O)c1cc(-c2ncccc2F)cnc1-c1cn2c(=O)n(C)c(C(F)(F)F)cc2n1` [I-1-4], in [12], the “mortality in comparison with untreated controls” value is recorded as “over 75%”.

What is called mortality is the percentage killed.
